Assay results published in ChEMBL document CHEMBL3797178, “Synthesis, antimycobacterial and antibacterial activity of 1-(6-amino-3,5-difluoropyridin-2-yl)fluoroquinolone derivatives containing an oxime functional moiety” (2016).
Values after ≈ are worked out from the molar mass of the structure shown.

Assays:
Format in all cases: functional
Pseudomonas aeruginosa [1] = assay: Antibacterial activity against Pseudomonas aeruginosa 14-16 after 18 to 24 hrs by CLSI M100-S11 method
Staphylococcus aureus [2] = assay: Antibacterial activity against methicillin-sensitive Staphylococcus aureus 14-4 after 18 to 24 hrs by CLSI M100-S11 method
Staphylococcus aureus [3] = assay: Antibacterial activity against methicillin-resistant Staphylococcus aureus 14-4 after 18 to 24 hrs by CLSI M100-S11 method
Escherichia coli [4] = assay: Antibacterial activity against extended-spectrum beta-lactamase-producing Escherichia coli 14-2 after 18 to 24 hrs by CLSI M100-S11 method
Enterococcus faecalis [5] = assay: Antibacterial activity against Enterococcus faecalis 14-3 after 18 to 24 hrs by CLSI M100-S11 method
[6] = test system: Mycobacterium tuberculosis; assay: Antimycobacterial activity against Mycobacterium tuberculosis H37Rv ATCC 27294 after 3 days by microplate Alamar Blue assay; details: H37Rv ATCC 27294, 72 h
Pseudomonas aeruginosa [7] = assay: Antibacterial activity against Pseudomonas aeruginosa 14-14 after 18 to 24 hrs by CLSI M100-S11 method
Pseudomonas aeruginosa [8] = assay: Antibacterial activity against Pseudomonas aeruginosa ATCC 27853 after 18 to 24 hrs by CLSI M100-S11 method
[9] = test system: Staphylococcus epidermidis; assay: Antibacterial activity against methicillin-resistant Staphylococcus epidermidis 14-37 after 18 to 24 hrs by CLSI M100-S11 method
[10] = test system: Staphylococcus epidermidis; assay: Antibacterial activity against methicillin-sensitive Staphylococcus epidermidis 14-4 after 18 to 24 hrs by CLSI M100-S11 method
Enterococcus faecium [11] = assay: Antibacterial activity against Enterococcus faecium 14-2 after 18 to 24 hrs by CLSI M100-S11 method
Staphylococcus aureus [12] = assay: Antibacterial activity against methicillin-sensitive Staphylococcus aureus 14-3 after 18 to 24 hrs by CLSI M100-S11 method
Pseudomonas aeruginosa [13] = assay: Antibacterial activity against Pseudomonas aeruginosa 14-19 after 18 to 24 hrs by CLSI M100-S11 method
Staphylococcus aureus [14] = assay: Antibacterial activity against Staphylococcus aureus CMCC 26003 after 18 to 24 hrs by CLSI M100-S11 method
Enterococcus faecalis [15] = assay: Antibacterial activity against Enterococcus faecalis 14-1 after 18 to 24 hrs by CLSI M100-S11 method
Klebsiella pneumoniae [16] = assay: Antibacterial activity against Klebsiella pneumoniae 14-3 after 18 to 24 hrs by CLSI M100-S11 method
Klebsiella pneumoniae [17] = assay: Antibacterial activity against Klebsiella pneumoniae 14-1 after 18 to 24 hrs by CLSI M100-S11 method
Klebsiella pneumoniae [18] = assay: Antibacterial activity against extended-spectrum beta-lactamase-producing Klebsiella pneumoniae 14-19 after 18 to 24 hrs by CLSI M100-S11 method
[19] = test system: Staphylococcus epidermidis; assay: Antibacterial activity against methicillin-sensitive Staphylococcus epidermidis 14-6 after 18 to 24 hrs by CLSI M100-S11 method
Enterococcus faecalis [20] = assay: Antibacterial activity against Enterococcus faecalis 14-2 after 18 to 24 hrs by CLSI M100-S11 method
Klebsiella pneumoniae [21] = assay: Antibacterial activity against Klebsiella pneumoniae 14-4 after 18 to 24 hrs by CLSI M100-S11 method
[22] = test system: Staphylococcus epidermidis; assay: Antibacterial activity against methicillin-resistant Staphylococcus epidermidis 14-22 after 18 to 24 hrs by CLSI M100-S11 method
Pseudomonas aeruginosa [23] = assay: Antibacterial activity against Pseudomonas aeruginosa 14-9 after 18 to 24 hrs by CLSI M100-S11 method
Escherichia coli [24] = assay: Antibacterial activity against extended-spectrum beta-lactamase-producing Escherichia coli 14-1 after 18 to 24 hrs by CLSI M100-S11 method
Escherichia coli [25] = assay: Antibacterial activity against Escherichia coli ATCC 25922 after 18 to 24 hrs by CLSI M100-S11 method
Klebsiella pneumoniae [26] = assay: Antibacterial activity against extended-spectrum beta-lactamase-producing Klebsiella pneumoniae 14-17 after 18 to 24 hrs by CLSI M100-S11 method
Staphylococcus aureus [27] = assay: Antibacterial activity against methicillin-resistant Staphylococcus aureus 14-5 after 18 to 24 hrs by CLSI M100-S11 method
Escherichia coli [28] = assay: Antibacterial activity against Escherichia coli 14-2 after 18 to 24 hrs by CLSI M100-S11 method
Streptococcus pneumoniae = assay: Antibacterial activity against Streptococcus pneumoniae ATCC 19615 after 18 to 24 hrs by CLSI M100-S11 method
[29] = test system: Staphylococcus epidermidis; assay: Antibacterial activity against methicillin-resistant Staphylococcus epidermidis 14-39 after 18 to 24 hrs by CLSI M100-S11 method
Klebsiella pneumoniae [30] = assay: Antibacterial activity against Klebsiella pneumoniae 14-2 after 18 to 24 hrs by CLSI M100-S11 method
Escherichia coli [31] = assay: Antibacterial activity against Escherichia coli 14-1 after 18 to 24 hrs by CLSI M100-S11 method
Staphylococcus aureus [32] = assay: Antibacterial activity against methicillin-sensitive Staphylococcus aureus 14-2 after 18 to 24 hrs by CLSI M100-S11 method
Klebsiella pneumoniae [33] = assay: Antibacterial activity against extended-spectrum beta-lactamase-producing Klebsiella pneumoniae 14-18 after 18 to 24 hrs by CLSI M100-S11 method
Pseudomonas aeruginosa [34] = assay: Antibacterial activity against Pseudomonas aeruginosa 14-15 after 18 to 24 hrs by CLSI M100-S11 method
[35] = test system: Staphylococcus epidermidis; assay: Antibacterial activity against methicillin-sensitive Staphylococcus epidermidis 14-2 after 18 to 24 hrs by CLSI M100-S11 method
Enterococcus faecium [36] = assay: Antibacterial activity against Enterococcus faecium 14-1 after 18 to 24 hrs by CLSI M100-S11 method

CO/N=C1\CN(c2nc3c(cc2F)c(=O)c(C(=O)O)cn3-c2nc(N)c(F)cc2F)CC1CN (centres undefined)
MIC (Pseudomonas aeruginosa [1]): 32 µg/mL (≈ 67 µM) | MIC (Staphylococcus aureus [2]): 0.25 µg/mL (≈ 0.524 µM) | MIC (Staphylococcus aureus [3]): > 128 µg/mL | MIC (Escherichia coli [4]): > 128 µg/mL | MIC (Enterococcus faecalis [5]): 32 µg/mL (≈ 67 µM) | MIC [6]: 7.13 µg/mL (≈ 14.9 µM) | MIC (Pseudomonas aeruginosa [7]): 32 µg/mL (≈ 67 µM) | MIC (Pseudomonas aeruginosa [8]): 4 µg/mL (≈ 8.38 µM) | MIC [9]: 128 µg/mL (≈ 268 µM) | MIC [10]: 64 µg/mL (≈ 134 µM) | MIC (Enterococcus faecium [11]): 64 µg/mL (≈ 134 µM) | MIC (Staphylococcus aureus [12]): 0.5 µg/mL (≈ 1.05 µM) | MIC (Pseudomonas aeruginosa [13]): 64 µg/mL (≈ 134 µM) | MIC (Staphylococcus aureus [14]): 0.5 µg/mL (≈ 1.05 µM) | MIC (Enterococcus faecalis [15]): 16 µg/mL (≈ 33.5 µM) | MIC (Klebsiella pneumoniae [16]): > 128 µg/mL | MIC (Klebsiella pneumoniae [17]): > 128 µg/mL | MIC (Klebsiella pneumoniae [18]): > 128 µg/mL | MIC [19]: 64 µg/mL (≈ 134 µM) | MIC (Enterococcus faecalis [20]): 16 µg/mL (≈ 33.5 µM) | MIC (Klebsiella pneumoniae [21]): > 128 µg/mL | MIC [22]: 64 µg/mL (≈ 134 µM) | MIC (Pseudomonas aeruginosa [23]): 16 µg/mL (≈ 33.5 µM) | MIC (Escherichia coli [24]): 16 µg/mL (≈ 33.5 µM) | MIC (Escherichia coli [25]): 2 µg/mL (≈ 4.19 µM) | MIC (Klebsiella pneumoniae [26]): 128 µg/mL (≈ 268 µM) | MIC (Staphylococcus aureus [27]): 64 µg/mL (≈ 134 µM) | MIC (Escherichia coli [28]): 128 µg/mL (≈ 268 µM) | MIC (Streptococcus pneumoniae): 64 µg/mL (≈ 134 µM) | MIC [29]: 64 µg/mL (≈ 134 µM) | MIC (Klebsiella pneumoniae [30]): > 128 µg/mL | MIC (Escherichia coli [31]): 128 µg/mL (≈ 268 µM) | MIC (Staphylococcus aureus [32]): 0.5 µg/mL (≈ 1.05 µM) | MIC (Klebsiella pneumoniae [33]): 32 µg/mL (≈ 67 µM) | MIC (Pseudomonas aeruginosa [34]): 32 µg/mL (≈ 67 µM) | MIC [35]: > 128 µg/mL | MIC (Enterococcus faecium [36]): > 128 µg/mL

Nc1nc(-n2cc(C(=O)O)c(=O)c3cc(F)c(N4CC/C(=N\OCc5ccccc5)C(O)C4)nc32)c(F)cc1F (centres undefined)
MIC (Pseudomonas aeruginosa [1]): 128 µg/mL (≈ 231 µM) | MIC (Staphylococcus aureus [2]): 4 µg/mL (≈ 7.21 µM) | MIC (Staphylococcus aureus [3]): > 128 µg/mL | MIC (Escherichia coli [4]): > 128 µg/mL | MIC (Enterococcus faecalis [5]): > 128 µg/mL | MIC [6]: > 32 µg/mL | MIC (Pseudomonas aeruginosa [7]): 128 µg/mL (≈ 231 µM) | MIC (Pseudomonas aeruginosa [8]): 128 µg/mL (≈ 231 µM) | MIC [9]: > 128 µg/mL | MIC [10]: > 128 µg/mL | MIC (Enterococcus faecium [11]): 32 µg/mL (≈ 57.7 µM) | MIC (Staphylococcus aureus [12]): 4 µg/mL (≈ 7.21 µM) | MIC (Pseudomonas aeruginosa [13]): 128 µg/mL (≈ 231 µM) | MIC (Staphylococcus aureus [14]): 2 µg/mL (≈ 3.61 µM) | MIC (Enterococcus faecalis [15]): > 128 µg/mL | MIC (Klebsiella pneumoniae [16]): 64 µg/mL (≈ 115 µM) | MIC (Klebsiella pneumoniae [17]): > 128 µg/mL | MIC (Klebsiella pneumoniae [18]): > 128 µg/mL | MIC [19]: > 128 µg/mL | MIC (Enterococcus faecalis [20]): > 128 µg/mL | MIC (Klebsiella pneumoniae [21]): > 128 µg/mL | MIC [22]: > 128 µg/mL | MIC (Pseudomonas aeruginosa [23]): 128 µg/mL (≈ 231 µM) | MIC (Escherichia coli [24]): 128 µg/mL (≈ 231 µM) | MIC (Escherichia coli [25]): 16 µg/mL (≈ 28.9 µM) | MIC (Klebsiella pneumoniae [26]): > 128 µg/mL | MIC (Staphylococcus aureus [27]): > 128 µg/mL | MIC (Escherichia coli [28]): > 128 µg/mL | MIC (Streptococcus pneumoniae): 32 µg/mL (≈ 57.7 µM) | MIC (Klebsiella pneumoniae [30]): > 128 µg/mL | MIC (Escherichia coli [31]): > 128 µg/mL | MIC (Staphylococcus aureus [32]): 4 µg/mL (≈ 7.21 µM) | MIC (Klebsiella pneumoniae [33]): > 128 µg/mL | MIC (Pseudomonas aeruginosa [34]): 128 µg/mL (≈ 231 µM) | MIC [35]: > 128 µg/mL | MIC (Enterococcus faecium [36]): > 128 µg/mL

NC[C@H]1/C(=N/OCc2ccccc2)CN1c1nc2c(cc1F)c(=O)c(C(=O)O)cn2-c1nc(N)c(F)cc1F
MIC (Pseudomonas aeruginosa [1]): 128 µg/mL (≈ 237 µM) | MIC (Staphylococcus aureus [2]): 4 µg/mL (≈ 7.41 µM) | MIC (Staphylococcus aureus [3]): > 128 µg/mL | MIC (Escherichia coli [4]): > 128 µg/mL | MIC (Enterococcus faecalis [5]): > 128 µg/mL | MIC [6]: > 32 µg/mL | MIC (Pseudomonas aeruginosa [7]): 128 µg/mL (≈ 237 µM) | MIC (Pseudomonas aeruginosa [8]): 64 µg/mL (≈ 119 µM) | MIC [9]: > 128 µg/mL | MIC [10]: > 128 µg/mL | MIC (Enterococcus faecium [11]): 32 µg/mL (≈ 59.3 µM) | MIC (Staphylococcus aureus [12]): 4 µg/mL (≈ 7.41 µM) | MIC (Staphylococcus aureus [14]): 2 µg/mL (≈ 3.71 µM) | MIC (Enterococcus faecalis [15]): > 128 µg/mL | MIC (Klebsiella pneumoniae [16]): > 128 µg/mL | MIC (Klebsiella pneumoniae [17]): > 128 µg/mL | MIC (Klebsiella pneumoniae [18]): > 128 µg/mL | MIC [19]: > 128 µg/mL | MIC (Enterococcus faecalis [20]): > 128 µg/mL | MIC (Klebsiella pneumoniae [21]): > 128 µg/mL | MIC [22]: > 128 µg/mL | MIC (Pseudomonas aeruginosa [23]): 128 µg/mL (≈ 237 µM) | MIC (Escherichia coli [24]): 64 µg/mL (≈ 119 µM) | MIC (Escherichia coli [25]): 4 µg/mL (≈ 7.41 µM) | MIC (Klebsiella pneumoniae [26]): > 128 µg/mL | MIC (Staphylococcus aureus [27]): > 128 µg/mL | MIC (Escherichia coli [28]): > 128 µg/mL | MIC (Streptococcus pneumoniae): 64 µg/mL (≈ 119 µM) | MIC [29]: > 130 µg/mL | MIC (Klebsiella pneumoniae [30]): > 128 µg/mL | MIC (Escherichia coli [31]): > 128 µg/mL | MIC (Staphylococcus aureus [32]): 2 µg/mL (≈ 3.71 µM) | MIC (Klebsiella pneumoniae [33]): 128 µg/mL (≈ 237 µM) | MIC (Pseudomonas aeruginosa [34]): 128 µg/mL (≈ 237 µM) | MIC [35]: > 128 µg/mL | MIC (Enterococcus faecium [36]): > 128 µg/mL
